From patent US20230346815A1, “LMP7-SELECTIVE INHIBITORS FOR THE TREATMENT OF BLOOD DISORDERS AND SOLID TUMORS” (Merck Patent GmbH, priority 2020, published 2023)
Entries after “also recorded” stand apart in the source; their conditions may differ.

Legend:
LMP7 [1] = target: T1, LMP7 (Homo sapiens, UniProt P20618+P28062); conditions: as previously described, Singh et al., 2011; cited from earlier work
OPM-2 = test: Efficacy in the multiple myeloma xenograft model OPM-2; type: in vivo, mouse; conditions: t(4;14)-positive OPM-2 xenograft; compound 9 10 mg/kg per os once daily; vs bortezomib 0.5 mg/kg i.v., ixazomib 3 mg/kg per os, carfilzomib 2 mg/kg i.p., each twice per week; FIG. 1
Procedure: The human multiple myeloma cell line OPM-2 was obtained from the German Collection of Microorganisms and Cell Cultures GmbH (DSMZ). 100 μL of a suspension of 5 million cells in phosphate-buffered saline (PBS) mixed 1:1 with Matrigel (Becton Dickinson) was injected per mouse. Bortezomib was formulated in Mannitol (Merck KGaA) in 0.9% NaCl and applied intravenously (i.v.) to mice at a dose of 0.5 mg/kg twice per week. Ixazomib was formulated in 5% KLEPTOSE® in water and applied orally (per os) to mice at a dose of 3 mg/kg twice per week. Carfilzomib was formulated in 5% KLEPTOSE® (AppliChem) in 50 mM sodium citrate buffer and applied by intraperitoneal (i.p.) injection to mice at a dose of 2 mg/kg twice per week. Compound 9 was formulated in 0.5% METHOCEL™ Premium K4M (Colorcon) and 0.25% Tween® 20 in PBS at applied per os to mice once daily at a dose of 10 mg/kg. Mean tumor volume and standard error of the mean (SEM) are indicated.

NCI-H929 = test: Efficacy in the multiple myeloma xenograft model NCI-H929; type: in vivo, mouse; conditions: t(4;14)-positive NCI-H929 xenograft, compound 9 10 mg/kg per os once daily
Procedure: The human multiple myeloma cell line NCI-H929 was obtained from the American Type Culture Collection (ATCC). 100 μL of a suspension of 5 million cells in PBS mixed 1:1 with Matrigel was injected per mouse. Bortezomib, carfilzomib and compound 9 were formulated and applied as described in Example 1. Mean tumor volume and SEM are indicated.
NCI-H929 xenograft tumors were established as described in Example 2. Compound 9 and ixazomib were formulated and applied as described in Example 1.

MM.1S = test: Efficacy in the multiple myeloma xenograft model MM.1S; type: in vivo, mouse; conditions: t(14;16)-positive MM.1S xenograft; compound 9 10 mg/kg per os once daily; vs bortezomib, ixazomib, carfilzomib 3 mg/kg i.v. twice per week; FIG. 4
Procedure: The human multiple myeloma cell line MM.1S was obtained from the ATCC. 100 μL of a suspension of 5 million cells in PBS was injected per mouse. Bortezomib, ixazomib and compound 9 were formulated and applied as described in Example 1. Carfilzomib was formulated as described in Example 1 and applied intravenously (i.v.) to mice at a dose of 3 mg/kg twice per week.

RPMI 8826 = test: Efficacy in the multiple myeloma xenograft model RPMI 8826; type: in vivo, mouse; conditions: t(14;16)-positive RPMI 8826 xenograft; compound 9 10 mg/kg per os once daily; vs bortezomib, carfilzomib, ixazomib; FIG. 5
Procedure: The human multiple myeloma cell line RPMI 8826 was obtained from the ATCC. 100 μL of a suspension of 5 million cells in PBS mixed 1:1 with Matrigel was injected per mouse. Bortezomib, carfilzomib, ixazomib and compound 9 were formulated and applied as described in Example 1.

Caspase-3/-7 activity = test: Caspase 3/7 activity in MM.1S xenograft tumors in vivo; parameters: species or system mouse; conditions: compound 9 applied once per os 10 mg/kg, vs vehicle control and bortezomib, carfilzomib, ixazomib single dose, FIG. 7
Procedure: MM.1S xenograft tumors samples from the same experiment described in Example 6 were used for assessment of Caspase-3/-7 activity as an indication of tumor cell apoptosis. 50 μg of tumor lysate protein in a total volume of 50 μL was mixed with the Caspase-Glo®3/7 Reagent (Promega) in 96-well plates according to the manufacturer's instruction. Luminescence was measured using an Envision 2104 plate reader (PerkinElmer).

LMP7 [2] = target: T1, LMP7; test: LMP7 activity in MM.1S xenograft tumors in vivo, cleavage of (Ac-ANW)2R110; parameters: from tissue; host or cells: MM.1S xenograft tumor lysate (tumors grown in mice); species or system mouse; conditions: compound 9 applied once per os 10 mg/kg, vs control and bortezomib, carfilzomib, ixazomib single dose, FIG. 6
Procedure: MM.1S xenograft tumors were established as described in Example 4. Compound 9, bortezomib, carfilzomib and ixazomib were formulated as described in Example 1. Compound 9 was applied once per os to mice at a dose of 10 mg/kg. Bortezomib was applied once i.v. to mice at a dose of 0.5 mg/kg. Ixazomib was applied once per os to mice at a dose of 3 mg/kg. Carfilzomib was applied once i.v. at a dose of 3 mg/kg. MM1S tumors were collected immediately following mouse euthanasia and lysed as described previously (Buchstaller et al., 2019). For assessment of LMP7 activity, 10 μg of tumor lysate protein in a total volume of 50 μL was mixed in 96-well plates with 50 μl of a buffer containing 100 mM HEPES pH 7.6, 60 mM MgSO4, 1 mM EDTA, 40 μg/ml digitonin and the fluorogenic LMP7 substrate (Ac-ANW)2R110 (from Biomol) at a final concentration of 10 μM. Plates were then shaken briefly, incubated for 60 min at 37° C. and then centrifuged at 300×g. Fluorescence (excitation 485 nm, emission 535 nm) was measured using an EnVision 2104 plate reader (PerkinElmer).

Row | SMILES | LMP7 selectivity (LMP7 [1]) [fold] | in vivo anti-tumor activity (mean tumor volume) (OPM-2) | in vivo anti-tumor activity (mean tumor volume) (NCI-H929; vs bortezomib and carfilzomib, FIG. 2) | in vivo anti-tumor activity (mean tumor volume) (NCI-H929; vs ixazomib 3 mg/kg per os twice per week, FIG. 3) | in vivo anti-tumor activity (mean tumor volume) (MM.1S) | in vivo anti-tumor activity (mean tumor volume) (RPMI 8826) | Caspase-3/-7 activity (induction of apoptosis) in tumor lysate (Caspase-3/-7 activity) | LMP7 activity in tumor lysate (LMP7 [2])
1 | CC1=C(C(=O)N[C@H](C)C(=O)N[C@@H](Cc2c[nH]c3ccccc23)C(=O)N[C@@H](Cc2ccccc2)C(=O)[C@@]2(C)CO2)Cc2ccccc21 [PR-924] | 100 |  |  |  |  |  |  | 
2 | O=C(N[C@@H](Cc1coc2ccccc12)B(O)O)[C@@H]1C[C@H]2CC[C@@H]1O2 [Compound 9, [(1R)-2-(1-benzofuran-3-yl)-1-{[(1S,2R,4R)-7-oxabicyclo[2.2.1]heptan-2-yl]formamido}ethyl]boronic acid] |  | increased efficacy as compared to bortezomib, carfilzomib, and ixazomib | increased efficacy as compared to bortezomib and carfilzomib | comparable activity of compound 9 as compared to the pan-proteasome inhibitor ixazomib | increased anti-tumor activity of compound 9 as compared to bortezomib and carfilzomib, and comparable activity as compared to ixazomib | increased in vivo activity of compound 9 as compared to ixazomib and carfilzomib, and comparable activity when compared to bortezomib | longer than compared to the pan-proteasome inhibitors; also recorded: significant induction of apoptosis | stronger and more prolonged than for the other pan-proteasome inhibitors tested; also recorded: significant reduction of enzymatic function of LMP7
